Results on three compounds are retold here after patent publication US20240226211A9, “SEAWEED EXTRACTS, ISOLATED COMPOUNDS, AND METHODS OF TREATMENT” (University of Florida Research Foundation, Incorporated, priority 2017, published 2024).

In data set [1] the test system is ARE-luciferase reporter (human NQO1-ARE) in IMR-32 cells. In words: ARE-luc reporter assay in IMR-32 cells. It counts as cell-based. Particulars: relative to Compounds 1 and 2; assay not specified. From the text: The ARE-luciferase reporter construct (ARE-luc) contains the core sequence of human NQO1-ARE1. The mock plasmid (pcDNA3-mRFP) was purchased from Addgene (plasmid 13032). The following plasmids were reported by Zhang et a/.2003 [Zhang, D. D., and Hannink, M. (2003) Distinct cysteine residues in Keap1 are required for Keap1-dependent ubiquitination of Nrf2 and for stabilization of Nrf2 by chemopreventive agents and oxidative stress. Mol. Cell. Biol. 23, 8137-8151]. The Keap1-CBD plasmid carries the entire open reading frame (ORF) of human Keap1 fused to the chitin binding domain (CBD) of the Bacillus circulans chitinase A1 gene upstream of the Keap1 stop codon. Oligonucleotide-directed mutagenesis was used to generate the Keap1-C151S-CBD and Keap1-C288S-CBD plasmids. The HA-Cul3 plasmid was constructed by fusing an N-terminal hemagglutinin (HA) tag with a cDNA sequence coding for amino acids 1-380 of human Cul3 gene. The Gal4-Neh2 expression vector contains the codons for the first 97 amino acids (Neh2 domain) of human Nrf2 fused to the ORF of the Gal4 DNA-binding domain
An ARE-luciferase reporter plasmid and CMV-GFP plasmid (to monitor transfection efficiency) were co-transfected into a human androgen-sensitive prostate cancer cell line, LNCaP (6×10^4 cells/well), and a human neuroblastoma cell line, IMR-32 (3×10^4 cells/well), using Fugene® HD (Roche Diagnostics) in 96-well format. […] J Biol Chem. 2002; 277:388-394; Lee J M, Hanson J M, Chu W A, Johnson J A. Phosphatidylinositol 3-kinase, not extracellular signal-regulated kinase, regulates activation of the antioxidant-responsive element in IMR-32 human neuroblastoma cells. […] After 24 hours of incubation, cells were treated with extracts from Cymopolia barbata, a negative control (DMSO, 1%, v/v), and a positive control ([…] sulforaphane, SF, and tert-butylhydroquinone, tBHQ, respectively.) 24 hours post-treatment, luciferase activity was detected using BriteLite detection reagent (PerkinElmer). […]

In the next data set the test system is NQO1. In words: qPCR of NQO1 transcript in IMR-32 cells. Conditions: 12 h. It counts as cell-based, human. As to the method:
The cells were seeded in 6-well format (see immunoblot) and treated with a solvent control (DMSO, 1%, v/v), isolated compounds, or extracts for 12 h. The RNeasy Mini Kit (Qiagen) was used to collect total RNA from cells, while for mouse tissue, TRIzol reagent (Invitrogen) was used. In each case, total RNAs (2 μg) were reverse-transcribed into cDNAs, which were used as templates for TaqMan gene expression assay (Applied Biosystems) and detected using the 7300 Real-Time PCR System (Applied Biosystems). Each qPCR sample was tested in triplicate as a 25 μL total reaction volume (12.5 μL of Taqman 2× universal master mix, 1.25 μL of a 20× TaqMan gene expression assay probe, 1 μL of the above cDNA, and 10.25 μL of RNase-free sterile water). The qPCR method was designed as following: 50° C. for 2 min, 95° C. for 10 min, and 40 cycles of 95° C. for 15 s and 60° C. for 1 min. Endogenous controls used included GAPDH for IMR-32 cells and β-actin to normalize for RAW264.7 cells and mouse tissues.

Data set [2] addresses T1, full-length human recombinant KEAP1 (Homo sapiens, UniProt Q14145).
T1 construct: cysteine residues of full-length human recombinant KEAP1 in vitro
In words: LC-MS/MS mapping of cysteine adducts on recombinant KEAP1. In kind it is binding. Particulars: excess CymQ. From the text:
To obtain a global picture of cysteine modification of Keap1, rather than focusing on known functionally relevant residues, a proteomics approach was utilized, monitoring the effect of activated cymopol (CymQ) on cysteine residues of full-length human recombinant KEAP1 in vitro, similarly as described [Wang R, et al. (2013) In vitro and in vivo characterization of a tunable dual-reactivity probe of the Nrf2-ARE pathway. ACS Chem Biol 8(8):1764-1774; Hur W, et al. (2010) A small-molecule inducer of the antioxidant response element. Chem Biol 17(5):537-547]. Briefly, KEAP1 was treated with excess CymQ and adducts were mapped by LC-MS/MS in three separate experiments (five different conditions) using DTT, chymotrypsin and trypsin as the variables for different sample preparations, in order to capture more potential adducts. The most abundant modification observed was a mass increase of 242, resulting from an addition-elimination reaction of 5 (FIGS. 54 and 55) with loss of bromine, which is unique to CymQ compared with tBQ. Additional representative spectra for different types of tags can be found in SI Appendix, Fig. S4. […] Most ARE activators belong to class 1 of this cysteine code where Cys151 is readily modified, although contradictory results are shown for these compounds based on the experimental conditions used. […]

Data set [3] is classed as physicochemical. As to the method:
Silver oxide (14.2 mg) was added to a solution of cymopol 1 (6.6 mg) in dichloromethane (2.5 mL). The reaction mixture was stirred at room temperature for 15 min before being evaporated in vacuum. The crude product was purified by preparative TLC plate (ethyl acetate/hexane 1:4, v/v, Rf 0.8) to give 4.92 mg product 5 (75% yield).

T1 sequence (Q14145 whole entry): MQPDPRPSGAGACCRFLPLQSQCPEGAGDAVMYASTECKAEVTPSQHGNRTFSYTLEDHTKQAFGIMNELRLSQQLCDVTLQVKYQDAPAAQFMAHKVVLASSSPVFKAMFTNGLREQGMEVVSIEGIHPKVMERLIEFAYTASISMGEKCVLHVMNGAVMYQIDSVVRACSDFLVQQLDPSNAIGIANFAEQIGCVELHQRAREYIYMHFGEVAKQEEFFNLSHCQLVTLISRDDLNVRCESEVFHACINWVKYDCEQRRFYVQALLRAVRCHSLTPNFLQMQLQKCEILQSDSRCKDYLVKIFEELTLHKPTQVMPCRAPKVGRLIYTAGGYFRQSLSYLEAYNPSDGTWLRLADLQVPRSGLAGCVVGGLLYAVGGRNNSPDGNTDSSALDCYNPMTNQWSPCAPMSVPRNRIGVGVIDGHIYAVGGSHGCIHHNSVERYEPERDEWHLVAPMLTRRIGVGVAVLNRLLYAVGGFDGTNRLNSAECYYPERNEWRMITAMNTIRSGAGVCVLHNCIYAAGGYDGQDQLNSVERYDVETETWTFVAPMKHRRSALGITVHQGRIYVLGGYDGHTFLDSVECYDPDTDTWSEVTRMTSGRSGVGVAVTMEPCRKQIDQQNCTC

As for `CC12CCC(Br)C(C)(C)C1Cc1cc(O)c(Br)cc1O2` (stereo not drawn) [Compound 3, 2,6-dibromo-1,1,4a-trimethyl-2,3,4,4a,9,9a-hexahydro-1H-xanthen-7-ol], the anti-oxidant efficacy entry in data set [1] was “reduced anti-oxidant efficacy”.
The same measure, in the same setting: as for `C=C1CCC(Br)C(C)(C)C1Cc1cc(OC)c(Br)cc1O` (stereo not drawn) [Compound 4, 5-bromo-2-((3-bromo-2,2-dimethyl-6-methylenecyclohexyl)methyl)-4-methoxyphenol], the entry is “reduced anti-oxidant efficacy”.
On to cymopol quinone [Compound 5], for which the “Nqo1 transcript induction by quinone versus hydroquinone counterpart” value with NQO1 was “retained the bioactivity”. In data set [2], the “alkylation of highly reactive cysteines including Cys151” value is recorded as “failed to alkylate” and the “number of KEAP1 cysteines modified” value is recorded as 10. In addition, the stability in air entry in data set [3] was “not stable in air”.
